Key:
Assay in all cases: biochemical
Parameters in all cases: PDE enzyme inhibition, 3H-cAMP / 3H-cGMP scintillation proximity assay
PDE10A = target: T1, PDE10A (Homo sapiens, UniProt Q9Y233)
T1 construct: full-length, Sf9 cell-free extract
Description: (§1) PDE activity assays were performed as previously described. Briefly, cell-free extracts were prepared from Sf9 insect cells recombinantly expressing full-length human PDEs (PDE2A, 3A, 3B, 4B, 7B, 8A, 9A, 10A, 11A). PDE5 was purified from human platelets by homogenization (Microfluidizer, 800 bar, 3 passages), centrifugation (75,000 × g, 60 min, 4 °C), and ion exchange chromatography of the supernatant on a Mono Q 10/10 column (linear NaCl gradient, eluted with 0.2–0.3 M NaCl in a buffer containing 20 mM Hepes pH 7.2 and 2 mM MgCl2). Fractions containing PDE5 activity were pooled and stored at −80 °C. PDE6 was purified from rod outer segments of bovine retinae by Dr. Körschen, Forschungszentrum Jülich, Germany[34]. Bovine PDE1 was purchased from Sigma-Aldrich (P9529, Taufkirchen, Germany). Enzyme inhibition studies were carried out using the commercially available 3H-cAMP and 3H-cGMP Scintillation Proximity Assay (SPA) systems (RPNQ0150, Perkin-Elmer, Rodgau, Germany).

PDE11A = target: T2, PDE11A (Homo sapiens, UniProt Q9HCR9)
T2 construct: full-length, Sf9 cell-free extract
Description: as §1

PDE2A = target: T3, PDE2A (Homo sapiens, UniProt O00408)
T3 construct: full-length, Sf9 cell-free extract
Description: as §1

PDE3A = target: T4, PDE3A (Homo sapiens, UniProt Q14432)
T4 construct: full-length, Sf9 cell-free extract
Description: as §1

PDE3B = target: T5, PDE3B (Homo sapiens, UniProt Q13370)
T5 construct: full-length human PDE3B, Sf9 cell-free extract
Description: as §1

PDE5 = target: T6, PDE5 (Homo sapiens, UniProt O76074)
T6 construct: gene PDE5A; native, purified from human platelets
Description: as §1

PDE6 = target: T7, PDE6 (Bos taurus, UniProt P11541+P23439)
T7 construct: gene PDE6A; native, purified from rod outer segments of bovine retinae
T7 sequence (P11541 1-859): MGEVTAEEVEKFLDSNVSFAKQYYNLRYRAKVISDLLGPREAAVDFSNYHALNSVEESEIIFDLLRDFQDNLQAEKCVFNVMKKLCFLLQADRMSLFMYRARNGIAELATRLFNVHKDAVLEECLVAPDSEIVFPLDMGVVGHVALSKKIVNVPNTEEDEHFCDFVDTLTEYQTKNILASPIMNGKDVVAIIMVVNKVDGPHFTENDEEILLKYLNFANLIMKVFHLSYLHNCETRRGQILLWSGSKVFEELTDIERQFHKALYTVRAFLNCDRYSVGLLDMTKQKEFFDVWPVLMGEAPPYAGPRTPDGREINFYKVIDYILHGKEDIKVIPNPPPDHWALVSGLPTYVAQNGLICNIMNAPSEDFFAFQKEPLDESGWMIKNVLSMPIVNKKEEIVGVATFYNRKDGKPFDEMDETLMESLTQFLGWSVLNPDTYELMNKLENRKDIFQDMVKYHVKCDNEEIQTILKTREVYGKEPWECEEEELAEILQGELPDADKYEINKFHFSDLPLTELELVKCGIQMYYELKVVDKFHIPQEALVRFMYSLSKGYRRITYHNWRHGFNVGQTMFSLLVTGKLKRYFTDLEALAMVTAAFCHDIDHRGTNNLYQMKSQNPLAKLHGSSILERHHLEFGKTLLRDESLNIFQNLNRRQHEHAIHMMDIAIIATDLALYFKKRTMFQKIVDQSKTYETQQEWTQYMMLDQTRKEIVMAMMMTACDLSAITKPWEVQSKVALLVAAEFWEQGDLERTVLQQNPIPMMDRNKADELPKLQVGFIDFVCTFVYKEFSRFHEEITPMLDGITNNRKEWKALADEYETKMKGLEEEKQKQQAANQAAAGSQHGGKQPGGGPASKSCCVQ
T7 sequence (P23439 1-853): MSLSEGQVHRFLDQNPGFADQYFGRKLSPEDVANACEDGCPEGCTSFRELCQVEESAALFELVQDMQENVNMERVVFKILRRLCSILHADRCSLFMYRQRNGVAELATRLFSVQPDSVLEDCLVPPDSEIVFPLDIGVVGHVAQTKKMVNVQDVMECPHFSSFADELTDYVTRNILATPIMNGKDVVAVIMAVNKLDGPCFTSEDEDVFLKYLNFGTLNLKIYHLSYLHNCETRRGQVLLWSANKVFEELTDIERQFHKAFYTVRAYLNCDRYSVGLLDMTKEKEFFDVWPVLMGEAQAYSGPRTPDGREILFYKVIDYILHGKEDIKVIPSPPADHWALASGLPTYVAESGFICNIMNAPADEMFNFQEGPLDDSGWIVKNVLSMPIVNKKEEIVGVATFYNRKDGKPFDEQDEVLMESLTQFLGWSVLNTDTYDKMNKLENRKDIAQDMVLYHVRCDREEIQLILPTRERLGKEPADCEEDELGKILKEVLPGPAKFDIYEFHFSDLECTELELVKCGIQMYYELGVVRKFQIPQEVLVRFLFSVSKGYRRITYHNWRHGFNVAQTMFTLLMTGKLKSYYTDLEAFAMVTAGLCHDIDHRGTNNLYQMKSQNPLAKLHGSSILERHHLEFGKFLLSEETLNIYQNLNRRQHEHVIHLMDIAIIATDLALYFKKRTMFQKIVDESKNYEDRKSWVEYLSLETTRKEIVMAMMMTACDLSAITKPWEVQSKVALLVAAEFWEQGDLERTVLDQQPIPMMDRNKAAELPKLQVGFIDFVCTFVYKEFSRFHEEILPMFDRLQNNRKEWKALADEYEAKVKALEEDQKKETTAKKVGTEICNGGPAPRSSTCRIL
Description: as §1

PDE7B = target: T8, PDE7B (Homo sapiens, UniProt Q9NP56)
T8 construct: full-length, Sf9 cell-free extract
Description: as §1

PDE8A = target: T9, PDE8A (Homo sapiens, UniProt O60658)
T9 construct: full-length, Sf9 cell-free extract
Description: as §1

PDE9A = target: T10, PDE9A (Homo sapiens, UniProt O76083)
T10 construct: full-length, Sf9 cell-free extract
Description: as §1

T9 sequence (O60658 whole entry): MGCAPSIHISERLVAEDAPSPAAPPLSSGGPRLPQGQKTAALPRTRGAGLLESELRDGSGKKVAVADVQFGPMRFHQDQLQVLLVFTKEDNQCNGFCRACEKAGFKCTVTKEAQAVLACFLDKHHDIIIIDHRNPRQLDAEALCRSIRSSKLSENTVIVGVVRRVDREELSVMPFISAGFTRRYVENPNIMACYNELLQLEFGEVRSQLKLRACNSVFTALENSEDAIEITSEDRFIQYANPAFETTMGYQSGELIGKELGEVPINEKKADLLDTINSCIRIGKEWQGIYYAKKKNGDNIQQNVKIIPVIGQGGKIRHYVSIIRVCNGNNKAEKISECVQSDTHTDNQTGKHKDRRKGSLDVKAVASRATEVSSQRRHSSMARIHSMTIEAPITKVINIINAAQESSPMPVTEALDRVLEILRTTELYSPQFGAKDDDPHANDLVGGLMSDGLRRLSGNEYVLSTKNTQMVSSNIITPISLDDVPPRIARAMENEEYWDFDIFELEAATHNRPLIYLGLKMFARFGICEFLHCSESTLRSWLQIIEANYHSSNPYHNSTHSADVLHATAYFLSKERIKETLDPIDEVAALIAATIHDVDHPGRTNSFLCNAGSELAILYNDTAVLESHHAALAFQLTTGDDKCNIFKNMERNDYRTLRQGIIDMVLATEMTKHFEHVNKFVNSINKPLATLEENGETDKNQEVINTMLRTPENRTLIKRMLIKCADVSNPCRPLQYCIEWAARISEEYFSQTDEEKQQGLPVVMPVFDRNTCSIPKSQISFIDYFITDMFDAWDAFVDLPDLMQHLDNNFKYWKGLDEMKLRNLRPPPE
T8 sequence (Q9NP56 whole entry): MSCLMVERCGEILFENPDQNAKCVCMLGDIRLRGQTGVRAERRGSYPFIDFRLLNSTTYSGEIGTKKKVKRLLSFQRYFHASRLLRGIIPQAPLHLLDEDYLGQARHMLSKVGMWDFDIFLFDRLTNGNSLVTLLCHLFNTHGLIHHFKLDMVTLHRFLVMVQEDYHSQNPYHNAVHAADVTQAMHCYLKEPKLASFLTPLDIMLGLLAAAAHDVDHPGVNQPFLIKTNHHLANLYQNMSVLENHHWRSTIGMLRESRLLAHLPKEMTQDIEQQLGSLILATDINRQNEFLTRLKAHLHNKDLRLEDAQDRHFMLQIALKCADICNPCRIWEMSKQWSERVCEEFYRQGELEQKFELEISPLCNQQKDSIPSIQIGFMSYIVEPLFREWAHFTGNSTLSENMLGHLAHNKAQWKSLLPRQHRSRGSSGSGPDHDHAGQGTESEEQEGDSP
T4 sequence (Q14432 whole entry): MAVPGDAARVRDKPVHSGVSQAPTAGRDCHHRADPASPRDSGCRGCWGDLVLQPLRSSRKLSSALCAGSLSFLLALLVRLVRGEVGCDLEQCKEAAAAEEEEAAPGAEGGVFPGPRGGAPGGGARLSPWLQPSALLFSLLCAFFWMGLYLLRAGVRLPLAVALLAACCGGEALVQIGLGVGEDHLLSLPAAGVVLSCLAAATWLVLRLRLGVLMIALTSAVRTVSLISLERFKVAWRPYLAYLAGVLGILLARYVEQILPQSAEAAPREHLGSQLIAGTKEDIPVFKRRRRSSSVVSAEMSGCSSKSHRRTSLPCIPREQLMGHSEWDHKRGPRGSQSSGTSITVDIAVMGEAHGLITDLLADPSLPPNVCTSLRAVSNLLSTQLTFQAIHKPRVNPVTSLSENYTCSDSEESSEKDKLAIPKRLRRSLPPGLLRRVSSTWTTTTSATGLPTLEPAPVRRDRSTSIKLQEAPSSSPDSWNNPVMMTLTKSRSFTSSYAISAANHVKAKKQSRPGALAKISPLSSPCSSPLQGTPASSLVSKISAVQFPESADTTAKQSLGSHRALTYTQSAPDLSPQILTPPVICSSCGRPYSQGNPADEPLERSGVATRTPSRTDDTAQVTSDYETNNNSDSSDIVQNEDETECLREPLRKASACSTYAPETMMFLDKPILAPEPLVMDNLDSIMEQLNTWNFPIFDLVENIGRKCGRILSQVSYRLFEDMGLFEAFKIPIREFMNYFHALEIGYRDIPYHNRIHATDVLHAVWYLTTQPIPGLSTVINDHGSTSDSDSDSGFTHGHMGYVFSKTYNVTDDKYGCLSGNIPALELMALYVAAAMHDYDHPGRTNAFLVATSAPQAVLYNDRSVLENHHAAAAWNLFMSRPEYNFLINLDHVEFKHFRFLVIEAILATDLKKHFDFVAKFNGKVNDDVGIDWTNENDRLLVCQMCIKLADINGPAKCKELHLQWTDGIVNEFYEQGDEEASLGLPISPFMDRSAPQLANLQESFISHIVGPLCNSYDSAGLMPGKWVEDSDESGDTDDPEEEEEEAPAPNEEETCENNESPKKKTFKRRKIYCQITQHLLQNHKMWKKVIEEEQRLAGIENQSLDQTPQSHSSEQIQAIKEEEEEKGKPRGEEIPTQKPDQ
T10 sequence (O76083 whole entry): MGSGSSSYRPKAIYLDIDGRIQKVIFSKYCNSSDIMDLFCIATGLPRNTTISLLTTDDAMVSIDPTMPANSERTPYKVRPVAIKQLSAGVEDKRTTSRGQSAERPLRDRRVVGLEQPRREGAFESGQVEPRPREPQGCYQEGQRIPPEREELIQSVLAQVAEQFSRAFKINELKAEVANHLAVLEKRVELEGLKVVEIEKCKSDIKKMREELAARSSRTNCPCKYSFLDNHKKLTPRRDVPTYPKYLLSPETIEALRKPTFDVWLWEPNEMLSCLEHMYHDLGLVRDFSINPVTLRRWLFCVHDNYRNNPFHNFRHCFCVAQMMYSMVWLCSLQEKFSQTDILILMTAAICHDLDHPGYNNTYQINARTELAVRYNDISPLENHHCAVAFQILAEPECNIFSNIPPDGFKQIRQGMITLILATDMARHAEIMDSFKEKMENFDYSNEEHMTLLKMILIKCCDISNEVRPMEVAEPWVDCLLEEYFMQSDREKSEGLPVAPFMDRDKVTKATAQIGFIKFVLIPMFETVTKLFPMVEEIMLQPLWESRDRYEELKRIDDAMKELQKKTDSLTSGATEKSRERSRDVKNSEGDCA
T2 sequence (Q9HCR9 whole entry): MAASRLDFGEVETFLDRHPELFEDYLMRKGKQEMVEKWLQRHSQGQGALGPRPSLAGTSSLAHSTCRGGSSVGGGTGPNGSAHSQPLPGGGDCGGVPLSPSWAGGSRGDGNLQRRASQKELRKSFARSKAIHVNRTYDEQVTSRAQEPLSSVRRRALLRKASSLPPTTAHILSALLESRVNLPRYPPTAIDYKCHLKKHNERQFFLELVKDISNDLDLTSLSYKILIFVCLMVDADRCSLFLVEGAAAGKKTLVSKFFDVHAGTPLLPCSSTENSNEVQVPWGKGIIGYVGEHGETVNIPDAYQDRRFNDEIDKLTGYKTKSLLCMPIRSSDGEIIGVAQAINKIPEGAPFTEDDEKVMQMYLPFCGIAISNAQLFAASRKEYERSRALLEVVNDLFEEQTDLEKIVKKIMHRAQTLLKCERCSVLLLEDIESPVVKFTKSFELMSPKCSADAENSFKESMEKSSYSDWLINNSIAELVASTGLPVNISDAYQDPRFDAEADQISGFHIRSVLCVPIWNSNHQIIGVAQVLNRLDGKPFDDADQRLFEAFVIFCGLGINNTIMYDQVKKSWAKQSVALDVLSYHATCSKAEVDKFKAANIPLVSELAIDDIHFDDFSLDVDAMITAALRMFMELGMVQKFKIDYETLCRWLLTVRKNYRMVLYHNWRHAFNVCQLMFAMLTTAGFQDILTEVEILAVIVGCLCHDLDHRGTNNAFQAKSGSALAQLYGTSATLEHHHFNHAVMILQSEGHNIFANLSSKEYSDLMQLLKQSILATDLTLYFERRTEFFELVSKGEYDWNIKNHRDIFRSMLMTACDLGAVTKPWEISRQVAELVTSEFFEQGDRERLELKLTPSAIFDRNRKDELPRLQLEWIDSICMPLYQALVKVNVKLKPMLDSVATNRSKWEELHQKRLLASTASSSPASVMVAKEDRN
T3 sequence (O00408 whole entry): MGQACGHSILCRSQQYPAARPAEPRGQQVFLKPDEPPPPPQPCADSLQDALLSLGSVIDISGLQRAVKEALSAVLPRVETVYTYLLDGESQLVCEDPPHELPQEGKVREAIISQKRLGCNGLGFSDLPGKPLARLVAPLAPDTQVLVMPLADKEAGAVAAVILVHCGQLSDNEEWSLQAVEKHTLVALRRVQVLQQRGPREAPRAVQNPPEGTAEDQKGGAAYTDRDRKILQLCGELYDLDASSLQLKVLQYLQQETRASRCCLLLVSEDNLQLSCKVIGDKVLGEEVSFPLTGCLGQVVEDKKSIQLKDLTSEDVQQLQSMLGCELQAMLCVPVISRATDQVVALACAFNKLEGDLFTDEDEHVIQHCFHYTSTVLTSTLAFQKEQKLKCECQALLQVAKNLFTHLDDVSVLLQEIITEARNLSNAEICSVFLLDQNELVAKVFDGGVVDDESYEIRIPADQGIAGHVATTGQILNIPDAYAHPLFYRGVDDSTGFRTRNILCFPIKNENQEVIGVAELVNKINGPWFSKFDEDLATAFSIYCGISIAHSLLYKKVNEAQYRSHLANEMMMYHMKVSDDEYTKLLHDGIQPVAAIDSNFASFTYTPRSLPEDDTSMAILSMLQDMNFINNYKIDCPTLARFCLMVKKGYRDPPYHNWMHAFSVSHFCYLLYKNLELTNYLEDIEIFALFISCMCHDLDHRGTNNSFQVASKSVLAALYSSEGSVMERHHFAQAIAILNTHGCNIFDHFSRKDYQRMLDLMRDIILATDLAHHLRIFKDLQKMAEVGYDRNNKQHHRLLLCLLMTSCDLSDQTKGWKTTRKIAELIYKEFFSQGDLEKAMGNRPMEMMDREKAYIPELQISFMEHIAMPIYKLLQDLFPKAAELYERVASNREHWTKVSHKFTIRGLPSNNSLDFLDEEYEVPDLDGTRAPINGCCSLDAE

Compound `COc1cc2c(cc1OC)-c1c/c(=N\c3c(C)cc(C)cc3C)n(C)c(=O)n1CC2` [trequinsin] has an IC50 (PDE10A) of 49.8 nM, an IC50 (PDE11A) of 1000 nM and an IC50 (PDE2A) of 785 nM. It also gave an IC50 (PDE3A) of 0.023 nM, an IC50 (PDE3B) of 0.05 nM and an IC50 (PDE5) of 870 nM. For the same compound, the IC50 (PDE6) was 1200 nM, the IC50 (PDE7B) was > 10000 nM and the IC50 (PDE8A) was 8000 nM. The IC50 (PDE9A) was > 10000 nM.
